In US12122811B2, “BDNF mimetic peptide amphiphiles” (Northwestern University, priority 2018, dated 2024):
Non-standard residues stand in square brackets, D forms with d. Primed or numbered codes have the meaning given here. No end group written: not given here. PEG6′ = PEG6 spacer

Key:
TrkB receptor = target: T1, TrkB receptor (Mus musculus, UniProt P15209); experiment: TrkB receptor phosphorylation (p-TrkB) by western blot in primary cortical neurons; format: cell-based; conditions: for TrkB phosphorylation: 4 and 6 h timepoints, 0.5 μM
T1 construct: Protein was extracted from primary neuronal cultures; endogenous in cells; host or cells: primary cortical neurons from E16 CD1 mouse embryos, 14 DIV
T1 sequence (P15209 32-821): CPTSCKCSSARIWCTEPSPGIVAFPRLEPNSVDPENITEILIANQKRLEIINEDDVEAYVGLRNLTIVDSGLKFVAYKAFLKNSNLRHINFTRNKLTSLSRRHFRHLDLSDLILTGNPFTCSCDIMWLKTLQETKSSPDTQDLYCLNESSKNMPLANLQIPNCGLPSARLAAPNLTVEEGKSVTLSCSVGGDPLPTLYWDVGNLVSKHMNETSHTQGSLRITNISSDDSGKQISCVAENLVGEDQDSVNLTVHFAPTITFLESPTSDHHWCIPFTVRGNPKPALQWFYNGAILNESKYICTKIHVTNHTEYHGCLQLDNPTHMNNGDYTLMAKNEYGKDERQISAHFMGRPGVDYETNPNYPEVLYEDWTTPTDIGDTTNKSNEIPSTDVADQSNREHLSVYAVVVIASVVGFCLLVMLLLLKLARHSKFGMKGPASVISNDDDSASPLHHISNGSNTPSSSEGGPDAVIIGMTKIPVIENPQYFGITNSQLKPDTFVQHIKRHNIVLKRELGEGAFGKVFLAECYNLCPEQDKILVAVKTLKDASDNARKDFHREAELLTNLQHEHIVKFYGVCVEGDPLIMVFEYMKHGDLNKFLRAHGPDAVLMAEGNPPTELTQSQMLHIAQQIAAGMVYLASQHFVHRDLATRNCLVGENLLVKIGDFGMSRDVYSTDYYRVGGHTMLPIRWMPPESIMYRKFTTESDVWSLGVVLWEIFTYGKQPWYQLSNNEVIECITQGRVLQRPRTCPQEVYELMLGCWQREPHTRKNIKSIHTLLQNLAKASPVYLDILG
Description: 2.3.2. Dissection of Embryonic Primary Cortical Neurons. Neurons were obtained from embryonic brains as described elsewhere.^2 Briefly, time-pregnant mouse was sacrificed by cervical dislocation and the embryos were extracted at embryonic day 16 (E16). Cerebral cortices were dissected from the mouse embryos and meninges were removed in a solution of Hank's Balanced Salt Solution (HBSS) with 1% pen-strep (Invitrogen) and then digested with trypsin (Invitrogen) and DNAse (Sigma-Aldrich) for 10 min at 37° C. The tissue was mechanically dissociated, centrifuged at 1000 g for 5 min, and resuspended in CO2-equilibrated Neurobasal (NB) neuronal culture medium (Invitrogen) supplemented with 10% normal horse serum (NHS) (Invitrogen), 1% pen-strep (Invitrogen), 0.5 mM L-glutamine (Invitrogen), and 5.8 μL NaHCO3/mL (Sigma-Aldrich). The cell suspension was pre-plated at 37° C. for 30 min. Afterwards, the supernatant was collected, passed through a cell strainer with 100 μm pore size and centrifuged at 1000 g for 5 min. The pellet was resuspended in NB neuronal culture medium (1% NHS, 1% pen-strep, 0.5 mM L-glutamine, 22 μM glutamic acid (Sigma-Aldrich), 2% B27 (Gibco), and 5.8 μL NaHCO3/mL (Sigma-Aldrich), and plated at different densities (depending on the type of experiment, see below) directly on tissue culture plates coated with poly-D-lysine (Sigma-Aldrich). After 24 hs, the medium was replaced with serum-free neuronal culture medium (1% pen-strep, 0.5 mM L-glutamine, 2% B27, 5.8 μL NaHCO3/mL). Under these conditions, we obtained a neuron-enriched culture with a composition of approximately 10% glial cells.
BDNF PA Treatments and Cell Culture Procedures. Treatments were prepared by dissolving PA (including E2 Filler, E2 Filler+E4PEG, E2 Filler+Linear BDNF, E2 Filler+BDNF PAs) and BDNF peptide at different concentrations (0.5, 1.0 or 5.0 μM), in media without serum or B27 supplement or starvation media. Unless otherwise noted, BDNF PA, Linear BDNF PA, or E4PEG PAs were co-assembled at 10 mol % with E2 filler PA (total concentration of PA was 5.0, 10.0, or 50.0 μM respectively). For the co-assembly ratio study, BDNF PA was co-assembled at 10, 20, 50, 70, 90, and 100 mol %. Human/Murine/Rat BDNF protein (Peprotech) was resuspended at different concentrations (0.25, 0.5 and 1 nM) in starvation media.
For western blot, cells were cultured in 6 well plates at a density of approximately 900,000 cells/well for 14 DIV before being treated. Treatments were added for 2, 4, 6, 8, 12 or 24 h in vitro before protein was harvested. […] Protein was extracted after six hours of treatment.
Western Blot. Protein was extracted from primary neuronal cultures with Halt Protease and Phosphatase Inhibitor Cocktail (Thermo Scientific) and a BCA assay (Thermo Scientific) was performed to determine protein content of each sample. Cell protein was loaded into and separated using a 4-20% SDS-PAGE gel (Bio-Rad). It was then electrotransferred from the gel to a nitrocellulose membrane (Bio-Rad). The membranes were blocked with 5% milk solution (Bio-Rad) for 30 minutes followed by an overnight incubation with primary antibodies at 4° C. The following primary antibodies were used: rabbit anti-pTrkB (1:1000, Cell Signaling), rabbit anti-TrkB (1:1000, Cell Signaling), rabbit anti-Actin (1:2000, Sigma Aldrich), mouse anti-Actin (1:2000, Sigma Aldrich), rabbit anti-pPLCγ (1:1000, Cell Signaling), rabbit anti-PLCγ (1:1000, Cell Signaling), rabbit anti-pAKT (1:2000, Cell Signaling), mouse anti-AKT (1:2000, Cell Signaling), rabbit anti-pERK1+ERK2 (1:1000, Abcam), rabbit anti-ERK 1/2 (1:1000, Cell Signaling), rabbit anti-PSD95 (1:1000, Abcam), rabbit anti-MAP-2 (1:2000, BioLegend), and mouse anti-Tuj-1 (1:1000, BioLegend). Membranes were then incubated with their corresponding secondary HRP-conjugated antibodies (1:1000; ThermoFisher). Protein signals were detected using Radiance Bioluminescent ECL substrate (Azure Biosystems). […]

cortical neurons = experiment: Infiltration and maturation of cortical neurons on 3D PA gel scaffolds; format: cell-based, mouse; conditions: neurons on gels, one week
Description: Gels were made using annealed PAs prepared with methods described herein 1. BDNF native protein or BDNF peptide were incorporated by mixing at 10 nM or 0.5 uM respectively, with E2 Filler PA gel at 1 wt % while it was in its liquid state. Silicon isolators with adhesive (Invitrogen) were placed on PDL coated glass coverslips. 70 μL of PA liquid was pipetted into the circular silicon well and a Transwell insert was placed flush with the top of the well of the silicon insert. This step ensured a flat, even thickness for all gels. Gelling solution comprised of 125 mM NaCl, 3 mM KCl, and 25 mM CaCl2 was pipetted into the Transwell insert and allowed to slowly soak down into the material from the top. The insert prevented the gel from swelling more than the thickness of the silicon isolator. All gels were incubated at 37° C. for 5 min before removing the Transwell insert.
Infiltration Study. Gels were prepared as described in 2.1.2. Gels were then rinsed with media one time before cells were seeded on top at a density of approximately 42,000 cells/well. Cells were cultured for one week in vitro. Half of the gels were analyzed by patch clamp analysis (see section 3.4.9. Other gels were fixed with 4% PFA to perform infiltration studies. Cell were stained for MAP2, TUJ-1 and DAPI using immunocytochemistry methods described previously. Confocal microscopy was used to make z-stack reconstructions of each gel. The MultiMeasure function in the ROI manager of ImageJ was used to measure the depth of pixels for each channel which was then plotted as intensity vs depth in the gel. The average intensity of MAP2 was measured by averaging the mean intensities obtained from maximum intensity projections of z-stacks images of gels.

[1] = test system: mouse model of spinal cord injury; experiment: Mouse model of spinal cord injury, Basso Mouse Scale hind limb scoring; format: in vivo; conditions: 12 weeks after injury; BDNF PA co-assembled at 20 mol % with E2 PA gel, injected 24 h after injury
Excerpt: The spinal cord injury procedures used follow a standardized protocol to ensure a reproducible injury. Mice were anesthetized and their back is opened to reveal the vertebral column. The vertebral bone at T11 was surgically removed to reveal the spinal cord tissue. The mice were then transferred the impactor machine which is used to inflict a compression injury on the exposed spinal cord. The spinal cord was held in place using stereotactic clamps. The instrument inflicts a force of 70-80 kDynes and dwells in the place of the impact for 60 seconds to simulate a crush injury accident. This injury is quite severe. After each impact was performed, the instrument supplies a graph corresponding to the real force and trajectory of the impactor. This graph is used to compare and ensure that all animals receive an injury of the same nature. After the injury is inflicted, the animals were closed and allowed to rest for 24 hours.
The next day, the animals were re-opened and prepared for the “treatment” surgery. Before beginning the procedure, all animals underwent a behavioral assessment and mice with hind limb movement were discarded from the study. When the animal is re-opened, there was typically a dark, bruised area apparent where the crush injury took place the previous day. This is where the treatment was injected. A Hamilton syringe attached to a glass-pulled needle with a diameter of ˜300 μm was used to puncture the bruised dermis of the tissue and the treatment was injected into the underlying tissue cavity. Treatment types include; saline, and the C16V2A2E2 (E2) non-bioactive PA gel as negative controls, as well as the BDNF PA co-assembled at 20 mol % with the E2 non-bioactive PA gel.
After injection, the animals were closed and returned to cages to recover. Over the next 12 weeks, blinded hind limb behavioral scoring was performed to assess any functional changes (FIG. 21). A standardized “Basso Mouse Scale” was used (Basso et al. J Neurotrauma. 2006 May; 23(5):635-59.; herein incorporated by reference in its entirety). Two blinded researchers were either side of a runway where the mouse was guided to move in a straight line. As the mouse walks, each researcher grades the limb movement. Any discrepancies in evaluation were re-evaluated by a third researcher. The score for the two limbs was averaged and marked as the score for that animal.

Q: For “Linear BDNF PA: non-cyclized BDNF PA synthesized as a control (chain 1 RKK[aK][dP][PEG6′]EEEEAAVV; chain 2 EEAAVV; not fully specified (C-terminus))”, which TrkB phosphorylation (TrkB receptor) is on record?
A: Its TrkB phosphorylation is “lack of TrkB phosphorylation”.

Q: How did the TrkB phosphorylation (TrkB receptor) turn out when C16V2A2E2 (EEAAVV) [E2 Filler PA] was run?
A: The TrkB phosphorylation was “none of these control conditions were able to induce TrkB phosphorylation”.

Q: And the “distance that neurites infiltrated from the top of the scaffold” value (cortical neurons)?
A: Its value is 36.9±9.9 μm.

Q: What about the “normalized average of MAP2 intensity” value (cortical neurons) of the same compound?
A: The value was 0.32±0.06.

Q: What about the “final average limb behavioral score (Basso Mouse Scale)” value [1] of the same compound?
A: The value was 2.4.

Q: With COC(=O)[C@@]1(O)C[C@H]2O[C@]1(C)n1c3ccccc3c3c4c(c5c6ccccc6n2c5c31)C(=O)NC4 [K252a, reference compound] as the compound, how does the “TrkB phosphorylation after pre-treatment with inhibitor K252a” value (TrkB receptor; K252a 2 h prior to treatment, 6 h post-treatment) read?
A: Its value is “completely blocked”.
